Source: patent US8426447B2, “Spiro-tricyclic ring compounds as beta-secretase modulators and methods of use” (Amgen Inc., priority 2008, dated 2013)
Each block holds one compound with its values, some of them ahead of it.

What was measured:
BACE1 [1] = biological target: T1, BACE1 (Homo sapiens, UniProt P56817); test: In Vitro Enzymatic BACE FRET (Fluorescence Resonance Energy Transfer) Assay; assay type: biochemical
Protocol: In Vitro Enzymatic BACE FRET (Fluorescence Resonance Energy Transfer) Assay (Enzyme Assay Data in the Example Tables I, II, III & IV) The assay buffer used in this screen is 0.05 M acetate, pH 4.2, 10% DMSO final, 100 uM genapol (which is a nonionic detergent, below its Critical Micelle Concentration). […] This assay is effectively started by the addition of FRET substrate (50 nM) and the combination is incubated for one hour. The FRET assay is terminated with by addition of Tris buffer, which raises the pH to neutrality, and the fluorescence is determined. The FRET substrate is a peptide with commercially available fluorophore and quencher, on opposite sides of the BACE cleavage site. […]

BACE1 [2] = biological target: T1, BACE1; test: In Vitro BACE Cell-based Assay (HEK cell assay): Aβ40 in conditioned medium of cells stably expressing Amyloid Precursor Protein, sandwich ELISA
Protocol: In Vitro BACE Cell-based Assay
The cell-based assay measures inhibition or reduction of Aβ40 in conditioned medium of test compound treated cells expressing amyloid precursor protein.
Cells stably expressing Amyloid Precursor Protein (APP) were plated at a density of 40K cells/well in 96 well plates (Costar). The cells were cultivated for 24 hours at 37° C. and 5% CO2 in DMEM supplemented with 10% FBS. The test compounds were then added to cells in 10-point dose response concentrations with the starting concentration being either 100 μM or 10 μM. The compounds were diluted from stock solutions in DMSO and the final DMSO concentration of the test compounds on cells was 0.1%. After 24 h of incubation with the test compounds the supernatant conditioned media was collected and the Aβ 40 levels were determined using a sandwich ELISA. The IC50 of the compound was calculated from the percent of control or percent inhibition of Aβ 40 as a function of the concentration of the test compound.
The sandwich ELISA to detect Aβ 40 was performed in 96 well microtiter plates, which were pre-treated with goat anti-rabbit IgG (Pierce). The capture and detecting antibody pair that were used to detect Aβ 40 from cell supernatants were affinity purified pAb40 (Biosource) and biotinylated 6E10 (Signet Labs Inc.), respectively. The optimal concentration for the pAb40 antibody was 3 μg/ml in Superblock/TBS (Pierce) that was supplemented with 0.05% Tween 20 (Sigma).
Cellular supernatants were incubated with the capture antibody for 3 h at 4° C., followed by 3 wash steps in TBS-tween (0.05%). The detecting antibody incubation was for 2 h at 4° C., again followed by the wash steps as described previously. The final readout of the ELISA is Time-Resolved Fluorescence (counts per minute) using Delfia reagents Streptavidin-Europium and Enhancement solutions (Perkin Elmer) and the Victor 2 multilabel counter (Perkin Elmer).

[3] = Table III, IC50's in uM ranges, read-out: BACE1 FRET assay
[4] = Table III, IC50's in uM ranges, read-out: HEK cell assay
[5] = Table IV, class symbols, read-out: BACE1 FRET assay
[6] = Table IV, class symbols, read-out: HEK cell assay
[7] = Table II, read-out: BACE1 FRET assay
[8] = in vitro BACE FRET enzyme assay, IC50 class symbols, read-out: BACE1 FRET assay

T1 sequence (P56817 46-501, species assumed): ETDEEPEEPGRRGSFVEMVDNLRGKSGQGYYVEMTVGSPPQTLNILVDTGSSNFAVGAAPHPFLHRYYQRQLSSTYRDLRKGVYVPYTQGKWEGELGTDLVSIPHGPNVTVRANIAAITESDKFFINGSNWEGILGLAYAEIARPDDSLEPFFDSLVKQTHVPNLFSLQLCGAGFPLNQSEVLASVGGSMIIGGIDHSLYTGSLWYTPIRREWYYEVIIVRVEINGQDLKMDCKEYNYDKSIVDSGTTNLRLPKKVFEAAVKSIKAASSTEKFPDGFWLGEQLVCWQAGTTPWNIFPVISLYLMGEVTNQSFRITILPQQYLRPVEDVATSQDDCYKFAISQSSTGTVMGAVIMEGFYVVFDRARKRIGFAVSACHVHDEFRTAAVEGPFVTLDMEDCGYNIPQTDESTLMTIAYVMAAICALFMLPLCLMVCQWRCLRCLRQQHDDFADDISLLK

IC50 (BACE1 [1]; [3]): < 0.1 µM | IC50 (BACE1 [2]; [4]): < 0.1 µM
SMILES: CC1(COc2ccc3c(c2)[C@]2(COC(N)=N2)c2cc(C#CC4CC4)ccc2O3)COC1 [compound 197]

IC50 (BACE1 [1]; read-out: BACE1 FRET assay): 0.1 to 1 µM | IC50 (BACE1 [2]; read-out: HEK cell assay): 0.1 to 1 µM
SMILES: Cc1noc(C)c1-c1ccc2c(c1)[C@]1(COC(N)=N1)c1cc(-c3cccnc3)ccc1O2 [compound 704]

IC50 (BACE1 [1]; [3]): < 0.1 µM | IC50 (BACE1 [2]; [4]): < 0.1 µM
SMILES: COC(C)(C)C#Cc1ccc2c(c1)[C@]1(COC(N)=N1)c1cc(-c3cccnc3)ccc1O2 [compound 201]

IC50 (BACE1 [1]; [5]): 1 to 5 µM | IC50 (BACE1 [2]; [6]): 1 to 5 µM
SMILES: NC1=N[C@@]2(CO1)c1ccccc1Oc1ccc(-c3cccnc3)cc12 [compound 640]

IC50 (BACE1 [1]; [7]): 0.1 to 1 µM | IC50 (BACE1 [2]; Table II, Aβ40, 24 h incubation, read-out: HEK cell assay): 1 to 5 µM
SMILES: Cc1ccc(-c2ccc3c(c2)[C@@]2(COC(N)=N2)c2cc(OCC(C)(C)C)ccc2O3)cn1 [Example 80, (4S)-2′-(2,2-dimethylpropoxy)-7′-(6-methyl-3-pyridinyl)spiro[1,3-oxazole-4,9′-xanthen]-2-amine]

IC50 (BACE1 [1]; Table 1, read-out: BACE1 FRET assay): > 5 µM | IC50 (BACE1 [2]; Table 1, Aβ40, 24 h incubation, read-out: HEK cell assay): > 5 µM
SMILES: COc1ccc2c(c1)C1(COC(N)=N1)c1cc(Br)ccc1O2 (centres unmarked) [Example 35, 2′-bromo-7′-methoxyspiro[1,3-oxazole-4,9′-xanthen]-2-amine]

IC50 (BACE1 [1]; [8]): 0.1 to 1 µM | IC50 (BACE1 [2]; HEK cell-based assay, Aβ40 in conditioned medium, IC50 class symbols, read-out: HEK cell assay): 0.1 to 1 µM
SMILES: NC1=N[C@@]2(CO1)c1cc(-c3cccnc3)ccc1Oc1ccc(N3CCOCC3)nc12 [compound 334]

IC50 (BACE1 [1]; [5]): < 0.1 µM | IC50 (BACE1 [2]; [6]): 0.1 to 1 µM
SMILES: Cn1cc(-c2ccc3c(c2)[C@]2(COC(N)=N2)c2cc(-c4cccnc4)ccc2O3)ccc1=O [compound 611]

IC50 (BACE1 [1]; [5]): 1 to 5 µM | IC50 (BACE1 [2]; [6]): 0.1 to 1 µM
SMILES: NC1=N[C@@]2(CO1)c1ccccc1Oc1ccc(-c3cc(F)cnc3Cl)cc12 [compound 619]

IC50 (BACE1 [1]; read-out: BACE1 FRET assay): < 0.1 µM | IC50 (BACE1 [2]; read-out: HEK cell assay): 0.1 to 1 µM
SMILES: COc1ccc(-c2ccc3c(c2)[C@]2(COC(N)=N2)c2cc(-c4cccnc4)ccc2O3)o1 [compound 711]

IC50 (BACE1 [1]; [8]): < 0.1 µM
SMILES: Cn1cc(-c2cnc3c(c2)[C@]2(COC(N)=N2)c2cc(-c4cccnc4F)ccc2O3)cn1 [compound 346]

The remaining lines, values behind:

SMILES: COc1cc(F)c2c(c1)[C@@]1(COC(N)=N1)c1cc(-c3cncnc3)cnc1O2 [compound 585]
IC50 (BACE1 [1]; [5]): > 5 µM | IC50 (BACE1 [2]; [6]): > 5 µM

SMILES: CC1(C)CC(c2cc3c(cn2)Oc2ccc(-c4cccnc4F)cc2[C@@]32COC(N)=N2)=CCO1 [compound 434]
IC50 (BACE1 [1]; BACE1 FRET assay (uM)): < 0.1 µM | IC50 (BACE1 [2]; HEK cell assay (uM), HEK cells): < 0.1 µM

SMILES: CN(C)CC#Cc1ccc2c(c1)[C@@]1(COC(N)=N1)c1cc(-c3cncnc3)ccc1O2 [117b]
IC50 (BACE1 [1]; [3]): 1 to 5 µM | IC50 (BACE1 [2]; [4]): 0.1 to 1 µM

SMILES: CC(C)(C)/C=C/c1ccc2c(c1)[C@]1(COC(N)=N1)c1cc(-c3cncnc3)ccc1O2 [compound 963]
IC50 (BACE1 [1]; read-out: BACE1 FRET assay): < 0.1 µM | IC50 (BACE1 [2]; read-out: HEK cell assay): < 0.1 µM

SMILES: NC1=N[C@@]2(CO1)c1cc(-c3cccnc3)ccc1Oc1cnc(N3CCNCC3)cc12 [compound 439]
IC50 (BACE1 [1]; read-out: BACE1 FRET assay): < 0.1 µM | IC50 (BACE1 [2]; HEK cells, read-out: HEK cell assay): < 0.1 µM

SMILES: COc1cc(F)c2c(c1)[C@]1(COC(N)=N1)c1cc(-c3cncnc3)cnc1O2 [compound 584]
IC50 (BACE1 [1]; [5]): 1 to 5 µM | IC50 (BACE1 [2]; [6]): > 5 µM

SMILES: CC(C)(C)COc1ccc2c(c1)[C@]1(COC(N)=N1)c1cc(C3=CCCCC3)ccc1O2 [compound 803]
IC50 (BACE1 [1]; [5]): < 0.1 µM | IC50 (BACE1 [2]; [6]): 1 to 5 µM

SMILES: Cc1n[nH]cc1-c1ccc2c(c1)[C@@]1(COC(N)=N1)c1cc(OCC(C)(C)C)ccc1O2 [Example 129, (S)-2′-(3-methyl-1H-pyrazol-4-yl)-7′-(neopentyloxy)-5H-spiro[oxazole-4,9′-xanthen]-2-amine 2,2,2-trifluoroacetate]
IC50 (BACE1 [1]; [3]): 0.1 to 1 µM | IC50 (BACE1 [2]; [4]): > 5 µM

SMILES: NC1=N[C@]2(CO1)c1cc(OCC3CCCO3)ccc1Oc1ccc(-c3cccnc3)cc12 (stereo partly drawn) [Example 99, (4S)-2′-(3-pyridinyl)-7′-(tetrahydro-2-furanylmethoxy)spiro[1,3-oxazole-4,9′-xanthen]-2-amine]
IC50 (BACE1 [1]; [7]): < 0.1 µM

SMILES: NC1=N[C@@]2(CO1)c1cc(-c3cccnc3F)ccc1Oc1cnc(-c3ccc(F)nc3)cc12 [compound 312]
IC50 (BACE1 [1]; [8]): < 0.1 µM

SMILES: NC1=N[C@]2(CO1)c1cc(OCC3CCCCO3)ccc1Oc1ccc(-c3cncnc3)cc12 (stereo partly drawn) [Example 107, (4S)-2′-(5-pyrimidinyl)-7′-(tetrahydro-2H-pyran-2-ylmethoxy)spiro[1,3-oxazole-4,9′-xanthen]-2-amine]
IC50 (BACE1 [1]; [7]): < 0.1 µM

SMILES: CC(C)(C#N)COc1ccc2c(c1)[C@@]1(COC(N)=N1)c1cc(-c3ccc(OC(F)(F)F)cc3)cnc1O2 [compound 342]
IC50 (BACE1 [1]; [8]): < 0.1 µM
